Source: PubChem BioAssay AID330 (DTP/NCI, 2004)
Several values for one entry are separate records, joined by “and”; a condition that tells them apart may be missing. Equal entries are not always repeated. Toxic doses and inconclusive results are not listed.

Tested on: P388 leukemia ip, CD2F1 mice, survival T/C
Test: NCI In Vivo Anticancer Drug Screen. Data for tumor model P388 Leukemia (intraperitoneal) in CD2F1 (CDF1) mice
Settings: endpoint: median survival time, higher = longer survival
How it was run: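 Mice carrying the transplanted tumor received test compound or vehicle. Survival was recorded in each group, and the value is the treated-group measurement divided by that of the vehicle-treated control group.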

[1] = dose: 60.0 mg/kg/injection, schedule: Q01DX005 (ip), vehicle: saline with Tween-80
[2] = dose: 50.0 mg/kg/injection, schedule: Q01DX005 (ip), vehicle: saline with Tween-80
[3] = dose: 100.0 mg/kg/injection, schedule: Q01DX005 (ip), vehicle: saline with Tween-80
[4] = dose: 200.0 mg/kg/injection, schedule: Q01DX005 (ip), vehicle: saline with Tween-80
[5] = dose: 50.0 mg/kg/injection, schedule: Q01DX009 (ip), vehicle: saline with Tween-80
[6] = dose: 100.0 mg/kg/injection, schedule: Q01DX009 (ip), vehicle: saline with Tween-80
[7] = dose: 200.0 mg/kg/injection, schedule: Q01DX009 (ip), vehicle: saline with Tween-80
[8] = dose: 100.0 mg/kg/injection, schedule: Q04DX003 (ip), vehicle: Klucel (hydroxypropylcellulose) (HPC)
[9] = dose: 200.0 mg/kg/injection, schedule: Q04DX003 (ip), vehicle: Klucel (hydroxypropylcellulose) (HPC)
[10] = dose: 12.5 mg/kg/injection, schedule: Q01DX009 (ip), vehicle: saline with Tween-80
[11] = dose: 25.0 mg/kg/injection, schedule: Q01DX009 (ip), vehicle: saline with Tween-80
[12] = dose: 100.0 mg/kg/injection, schedule: Q04DX002 (ip), vehicle: saline with Tween-80
[13] = dose: 200.0 mg/kg/injection, schedule: Q04DX002 (ip), vehicle: saline with Tween-80

## O=c1c2c(oc3ccccc13)Oc1oc3ccccc3c(=O)c1C2c1ccc2c(c1)OCO2
dose: 15.0 mg/kg/injection, schedule: Q01DX005 (ip), vehicle: saline with Tween-80
  T/C: 96 % of control
dose: 30.0 mg/kg/injection, schedule: Q01DX005 (ip), vehicle: saline with Tween-80
  T/C: 92 % of control and 96 % of control
[1]
  T/C: 91 % of control

## Nc1ccc2c(C(F)(F)F)cc(=O)oc2c1
[2]
  T/C: 106 % of control
[3]
  T/C: 99 % of control
[4]
  T/C: 94 % of control

## COC(=O)C(Cl)Cc1cncn1C (configuration not stated)
[5]
  T/C: 94 % of control
[6]
  T/C: 92 % of control
[7]
  T/C: 93 % of control

## COc1cc([C@@H]2c3cc4c(cc3[C@@H](OC3OC5CO[C@@H](c6cccs6)OC5C(O)C3O)[C@H]3COC(=O)[C@H]23)OCO4)cc(OC)c1O (some centres not stated)
dose: 0.25 mg/kg/injection, schedule: Q01DX009 (ip), vehicle: saline
  T/C: 170 % of control
dose: 0.5 mg/kg/injection, schedule: Q01DX009 (ip), vehicle: saline
  T/C: 208 % of control
dose: 0.75 mg/kg/injection, schedule: Q01DX005 (iv), vehicle: saline
  T/C: 100 % of control
dose: 1.0 mg/kg/injection, schedule: Q01DX009 (ip), vehicle: saline
  T/C: 261 % of control
dose: 1.5 mg/kg/injection, schedule: Q01DX005 (iv), vehicle: saline
  T/C: 104 % of control
dose: 2.0 mg/kg/injection, schedule: Q01DX005 (ip), vehicle: saline
  T/C: 155 % of control
dose: 2.0 mg/kg/injection, schedule: Q01DX009 (ip), vehicle: saline
  T/C: 157 % of control and 449 % of control
dose: 3.0 mg/kg/injection, schedule: Q01DX005 (iv), vehicle: saline
  T/C: 99 % of control
dose: 3.24 mg/kg/injection, schedule: Q04DX003 (ip), vehicle: clinical formulation
  T/C: 225 % of control
dose: 3.89 mg/kg/injection, schedule: Q04DX003 (ip), vehicle: saline
  T/C: 166 % of control
dose: 4.0 mg/kg/injection, schedule: Q01DX005 (ip), vehicle: saline
  T/C: 166 % of control
dose: 5.4 mg/kg/injection, schedule: Q04DX003 (ip), vehicle: clinical formulation
  T/C: 239 % of control
dose: 6.0 mg/kg/injection, schedule: Q01DX005 (ip), vehicle: saline
  T/C: 167 % of control
dose: 6.0 mg/kg/injection, schedule: Q01DX005 (iv), vehicle: saline
  T/C: 116 % of control
dose: 6.48 mg/kg/injection, schedule: Q04DX003 (ip), vehicle: clinical formulation
  T/C: 170 % of control
dose: 6.48 mg/kg/injection, schedule: Q04DX003 (ip), vehicle: saline
  T/C: 163 % of control
dose: 7.78 mg/kg/injection, schedule: Q04DX003 (ip), vehicle: saline
  T/C: 175 % of control
dose: 8.0 mg/kg/injection, schedule: Q01DX005 (ip), vehicle: saline
  T/C: 222 % of control
dose: 9.0 mg/kg/injection, schedule: Q04DX003 (ip), vehicle: clinical formulation
  T/C: 371 % of control
dose: 10.8 mg/kg/injection, schedule: Q04DX003 (ip), vehicle: clinical formulation
  T/C: 203 % of control
dose: 10.8 mg/kg/injection, schedule: Q04DX003 (ip), vehicle: saline
  T/C: 211 % of control
dose: 13.0 mg/kg/injection, schedule: Q04DX002 (ip), vehicle: saline
  T/C: 168 % of control
dose: 13.0 mg/kg/injection, schedule: Q04DX003 (ip), vehicle: saline
  T/C: 194 % of control
dose: 15.0 mg/kg/injection, schedule: Q04DX003 (ip), vehicle: clinical formulation
  T/C: 371 % of control
dose: 16.0 mg/kg/injection, schedule: Q01DX005 (ip), vehicle: saline
  T/C: 206 % of control
dose: 18.0 mg/kg/injection, schedule: Q04DX003 (ip), vehicle: clinical formulation
  T/C: 252 % of control
dose: 18.0 mg/kg/injection, schedule: Q04DX003 (ip), vehicle: saline
  T/C: 211 % of control
dose: 21.6 mg/kg/injection, schedule: Q04DX002 (ip), vehicle: saline
  T/C: 171 % of control
dose: 21.6 mg/kg/injection, schedule: Q04DX003 (ip), vehicle: saline
  T/C: 203 % of control
dose: 25.0 mg/kg/injection, schedule: Q04DX003 (ip), vehicle: clinical formulation
  T/C: 287 % of control
dose: 30.0 mg/kg/injection, schedule: Q04DX003 (ip), vehicle: clinical formulation
  T/C: 211 % of control
dose: 30.0 mg/kg/injection, schedule: Q04DX003 (ip), vehicle: saline
  T/C: 257 % of control
dose: 36.0 mg/kg/injection, schedule: Q04DX003 (ip), vehicle: saline
  T/C: 296 % of control
dose: 60.0 mg/kg/injection, schedule: Q04DX002 (ip), vehicle: saline
  T/C: 198 % of control
dose: 60.0 mg/kg/injection, schedule: Q04DX003 (ip), vehicle: saline
  T/C: 296 % of control
dose: 100.0 mg/kg/injection, schedule: Q04DX002 (ip), vehicle: saline
  T/C: 217 % of control

## N#CC1(c2ccccc2)C(c2ccccc2)=CC(=C2C(=O)NC(=O)N(c3ccccc3)C2=O)C=C1c1ccccc1 (configuration not stated)
dose: 50.0 mg/kg/injection, schedule: Q01DX005 (ip), vehicle: Klucel (hydroxypropylcellulose) (HPC)
  T/C: 100 % of control
dose: 100.0 mg/kg/injection, schedule: Q01DX005 (ip), vehicle: Klucel (hydroxypropylcellulose) (HPC)
  T/C: 104 % of control
dose: 200.0 mg/kg/injection, schedule: Q01DX005 (ip), vehicle: Klucel (hydroxypropylcellulose) (HPC)
  T/C: 98 % of control

## NC(N)=Nc1nc2ccccc2o1
dose: 50.0 mg/kg/injection, schedule: Q04DX003 (ip), vehicle: Klucel (hydroxypropylcellulose) (HPC)
  T/C: 90 % of control
[8]
  T/C: 100 % of control
[9]
  T/C: 100 % of control

## COc1cccc2c1OC(=O)C(S(=O)(=O)c1ccccc1)C2 (configuration not stated)
[2]
  T/C: 97 % of control
[3]
  T/C: 104 % of control
[4]
  T/C: 101 % of control

## CN(C)c1ccc2ccc(N(C)C)nc2c1
[10]
  T/C: 93 % of control
[11]
  T/C: 117 % of control
[5]
  T/C: 89 % of control and 95 % of control

## Cn1c2c(c3cc(Cl)cc(Cl)c31)-c1ncncc1CC2
[12]
  T/C: 98 % of control
[13]
  T/C: 98 % of control
dose: 400.0 mg/kg/injection, schedule: Q04DX002 (ip), vehicle: saline with Tween-80
  T/C: 95 % of control

## CN=C(NC)c1ccc(NC(=O)c2ccc(C(=O)Nc3ccc(C(=NC)NC)c(C)c3)cc2)cc1C
dose: 6.25 mg/kg/injection, schedule: Q01DX005 (ip), vehicle: saline with Tween-80
  T/C: 111 % of control and 118 % of control
dose: 12.5 mg/kg/injection, schedule: Q01DX005 (ip), vehicle: saline with Tween-80
  T/C: 119 % of control
dose: 25.0 mg/kg/injection, schedule: Q01DX005 (ip), vehicle: saline with Tween-80
  T/C: 164 % of control and 173 % of control

## O=C(Nc1nnc(C(F)(F)F)s1)c1c(F)cccc1F
[10]
  T/C: 104 % of control
[11]
  T/C: 104 % of control
[5]
  T/C: 99 % of control

## Cc1ccc(N=C(N)NN=C(c2ccc(Cl)cc2)c2ccc(Cl)cc2)cc1
dose: 25.0 mg/kg/injection, schedule: Q04DX002 (ip), vehicle: saline with Tween-80
  T/C: 98 % of control and 103 % of control and 107 % of control
dose: 50.0 mg/kg/injection, schedule: Q04DX002 (ip), vehicle: saline with Tween-80
  T/C: 100 % of control and 106 % of control and 108 % of control
[12]
  T/C: 107 % of control (2×) and 109 % of control
[13]
  T/C: 105 % of control and 118 % of control and 120 % of control

## FC(F)(F)c1cccc(CSCc2c(CSCc3cccc(C(F)(F)F)c3)c(CSCc3cccc(C(F)(F)F)c3)c(CSCc3cccc(C(F)(F)F)c3)c(CSCc3cccc(C(F)(F)F)c3)c2CSCc2cccc(C(F)(F)F)c2)c1
[5]
  T/C: 104 % of control
[6]
  T/C: 98 % of control
[7]
  T/C: 97 % of control

## C[n+]1cc2c3ccccc3ccc2c2ccccc21
dose: 12.5 mg/kg/injection, schedule: Q04DX003 (ip), vehicle: distilled water + Tween-80
  T/C: 113 % of control
dose: 25.0 mg/kg/injection, schedule: Q04DX003 (ip), vehicle: distilled water + Tween-80
  T/C: 105 % of control

## NC(=S)c1ccccc1N=Cc1ccccn1
[8]
  T/C: 100 % of control
[9]
  T/C: 107 % of control

## COc1ccc2c(c1)OC(C)(C)c1c-2n(C)c2c(F)cccc2c1=O
dose: 60.0 mg/kg/injection, schedule: Q01DX005 (ip), vehicle: Klucel (hydroxypropylcellulose) (HPC)
  T/C: 100 % of control
dose: 120.0 mg/kg/injection, schedule: Q01DX005 (ip), vehicle: Klucel (hydroxypropylcellulose) (HPC)
  T/C: 101 % of control
dose: 240.0 mg/kg/injection, schedule: Q01DX005 (ip), vehicle: Klucel (hydroxypropylcellulose) (HPC)
  T/C: 101 % of control

## CCOC(=O)c1c(OC)c(-c2ccccc2)c(=O)n2c3ccccc3n(C)c12
[1]
  T/C: 95 % of control
dose: 120.0 mg/kg/injection, schedule: Q01DX005 (ip), vehicle: saline with Tween-80
  T/C: 88 % of control
